PMC8546428, “Convergent olfactory trace amine-associated receptors detect biogenic polyamines with distinct motifs via a conserved binding site” (The Journal of Biological Chemistry, 2021)
Changes are numbered by the printed parent chain.

Assays:
WT sTAAR365 = molecular target: T1, WT sTAAR365 (Petromyzon marinus, UniProt A0A678XMK4); assay: cAMP TR-FRET assay, wild-type sTAAR365 in HEK293T; format: cell-based, sea lamprey; settings: for activation of sTAAR365 (cAMP accumulation): ligand 1 mM, HEK293T, Fig. 2A
T1 sequence (A0A678XMK4 1-365): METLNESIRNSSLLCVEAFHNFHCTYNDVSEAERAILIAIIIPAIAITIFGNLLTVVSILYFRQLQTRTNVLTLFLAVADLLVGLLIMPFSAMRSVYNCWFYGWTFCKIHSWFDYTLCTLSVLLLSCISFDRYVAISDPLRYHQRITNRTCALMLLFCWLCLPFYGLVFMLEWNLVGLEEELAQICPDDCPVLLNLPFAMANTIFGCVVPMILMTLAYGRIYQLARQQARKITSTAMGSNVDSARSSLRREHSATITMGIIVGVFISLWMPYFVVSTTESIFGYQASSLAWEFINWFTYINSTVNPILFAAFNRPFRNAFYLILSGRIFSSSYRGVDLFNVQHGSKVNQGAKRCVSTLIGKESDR
Description: HEK293T cells were transfected with sea lamprey sTAAR365 for 24 h and assayed for Golf-mediated cAMP production with a TR-FRET assay at 30 min after ligand addition. Receptor activity was normalized to the cAMP level in buffer-treated cells (mean ± S.D., n = 3). A, HEK293T cells expressing sTAAR365 or mock plasmid were incubated with either vehicle or tested ligands (1 mM). […] B, concentration-dependent cAMP production of HEK293T cells expressing sTAAR365 stimulated with cadaverine, putrescine, and spermine.

sTAAR365 E7.36A = molecular target: T2, sTAAR365 E7.36A (Petromyzon marinus, UniProt A0A678XMK4, E292A); assay: cell-based
T2 sequence (A0A678XMK4 1-365 E292A): T1 sequence (A0A678XMK4 1-365) with E292A

sTAAR365 Y6.51F = molecular target: T3, sTAAR365 Y6.51F (Petromyzon marinus, UniProt A0A678XMK4, Y272F); assay: cell-based
T3 sequence (A0A678XMK4 1-365 Y272F): T1 sequence (A0A678XMK4 1-365) with Y272F

sTAAR365 E7.36D = molecular target: T4, sTAAR365 E7.36D (Petromyzon marinus, UniProt A0A678XMK4, E292D); assay: cell-based
T4 sequence (A0A678XMK4 1-365 E292D): T1 sequence (A0A678XMK4 1-365) with E292D

Rat TAAR9 = molecular target: T5, Rat TAAR9 (Rattus norvegicus, UniProt Q923Y6); assay: CRE-luciferase reporter assay in Hana3A; format: cell-based; settings: rat TAAR9, ligand 1 mM, Fig. 1B
T5 construct: expressed in transfected cells; host or cells: Hana3A (HEK293-derived)
T5 sequence (Q923Y6 1-338): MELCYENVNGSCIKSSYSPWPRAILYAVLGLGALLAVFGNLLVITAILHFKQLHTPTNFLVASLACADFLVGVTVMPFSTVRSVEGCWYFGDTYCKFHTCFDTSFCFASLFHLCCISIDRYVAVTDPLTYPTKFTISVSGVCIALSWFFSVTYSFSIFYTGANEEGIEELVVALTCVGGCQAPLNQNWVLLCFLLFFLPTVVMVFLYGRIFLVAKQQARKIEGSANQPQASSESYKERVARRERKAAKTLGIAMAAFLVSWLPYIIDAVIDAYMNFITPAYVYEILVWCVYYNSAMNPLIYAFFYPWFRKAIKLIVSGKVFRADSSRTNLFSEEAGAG
Description: We examined the response of TAAR9s from rat, human, hamster, and rabbit to the stimulation of 1 mM amines using a well-established cAMP response element (CRE)-driven luciferase reporter assay based on Golf-mediated cAMP signal transduction ([5], [24]). In addition to the four mTAAR9 ligands, we included putrescine, which is also a polyamine and precursor of spermine/spermidine biosynthesis.
Mammalian TAAR9 plasmids were transfected into Hana3A cells along with a cAMP-dependent luciferase reporter plasmid (CRE-Luc). Transfected cells were incubated with tested ligands, and luciferase activity was quantified with a […] substrate as a reporter for Golf-mediated TAAR activation. Luciferase activity was indicated by the luminescence value and normalized as a fold-increase over the response to the vehicle stimuli (mean ± S.D., n = 3). […] B, Hana3A cells expressing mouse, rat, human, cat, hamster, and rabbit TAAR9 were incubated with either vehicle or tested ligands (1 mM) and assayed for reporter activity. C, concentration-dependent luciferase activity in Hana3A cells expressing mouse, rat, and cat TAAR9 receptors stimulated with cadaverine, spermidine, and spermine.
The firefly luciferase and renilla luciferase activity was measured with a BioTek microplate reader following manufacturer’s instructions.

Compound | EC50 (WT sTAAR365) | difference in potency, cadaverine vs putrescine (WT sTAAR365; WT sTAAR365) | response threshold (WT sTAAR365; WT sTAAR365, cAMP production) | activation of sTAAR365 (cAMP accumulation) (WT sTAAR365) | EC50 (sTAAR365 E7.36A) | EC50 (sTAAR365 Y6.51F) | EC50 (sTAAR365 E7.36D) | reporter activity (activation of TAAR9) (Rat TAAR9) | maximal response (Emax) relative to cadaverine/putrescine (WT sTAAR365; WT sTAAR365, cAMP production)
NCCCCCN [cadaverine] | 0.004 µM | 1000 fold | ~100 pM | activated | 0.05 ± 0.02 µM | 1.7 ± 0.9 µM | 0.007 ± 0.002 µM | maximum responses | 
NCCCCN [putrescine] | 56 µM |  |  | activated | 420 ± 87 µM | > 500 µM | 72 ± 14 µM | not activated | 
NCCCNCCCCNCCCN [spermine] | 28 µM |  |  | activated | > 500 µM | 114 ± 20 µM | > 500 µM | maximum responses | one-third
